According to patent US10941162B2, “Heterocyclic compounds and uses thereof” (Infinity Pharmaceuticals, Inc., priority 2014, dated 2021):

Experiments:
p110 δ = p110 δ (Homo sapiens (Human), UniProt O00329); assay: RAJI p110 δ assay (PI3K-δ selective cellular assay, phospho-AKT); assay type: cell-based; settings: RAJI cells stimulated with anti-human IgM
Excerpt: A compound's ability in selectively inhibiting PI3K-δ can be assessed using RAJI cells, i.e., B lymphocyte cells derived from lymphoma patients. Briefly, serum-starved RAJI cells are stimulated with anti-human IgM, thereby causing signaling through the B-cell receptors, as described in, for example, He et al., Leukemia Research (2009) 33: 798-802. B-cell receptor signaling is important for the activation, differentiation, and survival of B cells and certain B-cell derived cancers. Reduction of phospho-AKT is indicative of compounds that may inhibit B-cell proliferation and function in certain diseases. By monitoring the reduction of phospho-AKT in stimulated RAJI cells (using for example, phospho-AKT antibodies), a compound's potential efficacy in selectively inhibiting PI3KS can be assessed.

PI3K α = PI3K α (Homo sapiens (Human), UniProt P42336); assay: PI3-Kinase in vitro IC50 assay, α isoform; assay type: biochemical
Excerpt: (§1) A PI3-Kinase HTRF® assay kit (cat No. 33-016) purchased from Millipore Corporation is used to screen compounds provided herein. This assay uses specific, high affinity binding of the GRP1 pleckstrin homology (PH) domain to PIP3, the product of a Class 1A or 1B PI3 Kinase acting on its physiological substrate PIP2. During the detection phase of the assay, a complex is generated between the GST-tagged PH domain and biotinylated short chain PIP3. The biotinylated PIP3 and the GST-tagged PH domain recruited fluorophores (Streptavidin-Allophycocyanin and Europium-labeled anti-GST respectively) to form the fluorescence resonance energy transfer (FRET) architecture, generating a stable time-resolved FRET signal. The FRET complex is disrupted in a competitive manner by non-biotinylated PIP3, a product formed in the PI3 Kinase assay.
(§2) PI3 Kinase α, β, γ or δ activity is assayed using the PI3 Kinase HTRF®, assay kit (catalogue No. 33-016) purchased from Millipore Corporation. Purified recombinant PI3Kα (catalogue No. 14-602-K), PI3Kβ (catalogue No. 14-603-K), PI3Kγ (catalogue No. 14-558-K), and PI3Kδ (catalogue No. 14-604-K) are obtained from Millipore Corporation. Purified recombinant PI3K enzyme is used to catalyze the phosphorylation of phosphatidylinositol 4,5-bisphosphate (PIP2 at 10 μM) to phosphatidylinositol 3,4,5-trisphosphate (PIP3) in the presence of 10 μM ATP. The assay is carried out in 384-well format and detected using a Perkin Elmer EnVision Xcite Multilabel Reader. Emission ratios are converted into percent inhibitions and imported into GraphPad Prism software. The concentration necessary to achieve inhibition of enzyme activity by 50% (IC50) is calculated using concentrations ranging from 20 μM to 0.1 nM (12-point curve), IC50 values are determined using a nonlinear regression model available in GraphPad Prism 5.
(§3) Promega ADP-Glo Max assay kit (Cat. No. V7002) can be utilized to determine IC50 values for α, β, δ and γ isoforms of human Class I PI3 kinases (Millipore). Samples of kinase (20 nM α or δ, 40 nM β or γ isoform) are incubated with compound for 15 minutes at room temperature in reaction buffer (15 mM HEPES pH 7.4, 20 mM NaCl, 1 mM EGTA, 0.02% Tween 20, 10 mM MgCl2, 0.2 mg/mL bovine-γ-globulins) followed by addition of ATP/diC8-PtdInsP mixture to give final concentrations of 3 mM ATP and 500 uM diC8-PtdInsP. Reactions are incubated at room temperature for 2 hours followed by addition of 25 uL of stop solution. After a 40-minute incubation at room temperature, 50 uL of Promega detection mix is added followed by incubation for 1 hour at room temperature. Plates are then read on Envision plate reader in luminescence mode. Data are converted to % inhibition using the following equation below:
(§4) [formula] where S is the sample luminescence, Pos is a positive control without added PI3K, Neg is the negative control without added compound. Data are then plotted as % inhibition vs compound concentration. Data fit to 4 parameter logistic equation to determine IC50 values: […]

p110 γ = p110 γ (Mus musculus (Mouse), UniProt Q9JHG7); assay: Raw264.7 p110 γ assay (PI3K-γ selective cellular assay, phospho-AKT); assay type: cell-based; settings: for IC50: RAW264.7 cells stimulated with C5a, phospho-AKT; for RAJI δ/Raw264.7 γ IC50 (selectivity): ratio of RAJI p110 δ IC50 to Raw264.7 p110 γ IC50
Excerpt: A compound's ability in selectively inhibiting PI3K-γ can be assessed using RAW264.7 macrophages. Briefly, serum-starved RAW264.7 cells are stimulated with a known GPCR agonist C5a. See, e.g., Camps et al., Nature Medicine (2005) 11(9):936-943. Cells can be treated with test compounds prior to, simultaneously with, or subsequent to the stimulation by C5a. RAW 264.7 cells respond to the complement component fragment C5a through activation of the C5a receptor, and the C5a receptor activates macrophages and induces cell migration. Test compounds' ability to inhibit C5a-mediated AKT phosphorylation is indicative of selective inhibition of PI3K-γ. Thus, by monitoring the reduction of phospho-AKT in stimulated RAW 264.7 cells (using for example, phospho-AKT antibodies), a compound's potential efficacy in selectively inhibiting PI3Kγ can be assessed.
Certain compounds provided herein were tested in RAW 264.7 cell model using procedures as described above.

PI3K γ = PI3K γ (Homo sapiens (Human), UniProt P48736); assay: PI3-Kinase in vitro IC50 assay, γ isoform; assay type: biochemical; settings: for IC50: in vitro; for PI3K δ/PI3K γ IC50 (selectivity): ratio of PI3K δ IC50 to PI3K γ IC50
Excerpt: as §1, §2, §3, §4

PI3K δ = PI3K δ (Homo sapiens (Human), UniProt O00329); assay: PI3-Kinase in vitro IC50 assay, δ isoform; assay type: biochemical
Excerpt: as §1, §2, §3, §4

PI3K β = PI3K β (Homo sapiens, UniProt P42338); assay: PI3-Kinase in vitro IC50 assay, β isoform; assay type: biochemical
Excerpt: A PI3-Kinase HTRF® assay kit (cat No. 33-016) purchased from Millipore Corporation is used to screen compounds provided herein. This assay uses specific, high affinity binding of the GRP1 pleckstrin homology (PH) domain to PIP3, the product of a Class 1A or 1B PI3 Kinase acting on its physiological substrate PIP2. During the detection phase of the assay, a complex is generated between the GST-tagged PH domain and biotinylated short chain PIP3. The biotinylated PIP3 and the GST-tagged PH domain recruited fluorophores (Streptavidin-Allophycocyanin and Europium-labeled anti-GST respectively) to form the fluorescence resonance energy transfer (FRET) architecture, generating a stable time-resolved FRET signal. The FRET complex is disrupted in a competitive manner by non-biotinylated PIP3, a product formed in the PI3 Kinase assay. PI3 Kinase α, β, γ or δ activity is assayed using the PI3 Kinase HTRF®, assay kit (catalogue No. 33-016) purchased from Millipore Corporation. Purified recombinant PI3Kα (catalogue No. 14-602-K), PI3Kβ (catalogue No. 14-603-K), PI3Kγ (catalogue No. 14-558-K), and PI3Kδ (catalogue No. 14-604-K) are obtained from Millipore Corporation. Purified recombinant PI3K enzyme is used to catalyze the phosphorylation of phosphatidylinositol 4,5-bisphosphate (PIP2 at 10 μM) to phosphatidylinositol 3,4,5-trisphosphate (PIP3) in the presence of 10 μM ATP. The assay is carried out in 384-well format and detected using a Perkin Elmer EnVision Xcite Multilabel Reader. Emission ratios are converted into percent inhibitions and imported into GraphPad Prism software. The concentration necessary to achieve inhibition of enzyme activity by 50% (IC50) is calculated using concentrations ranging from 20 μM to 0.1 nM (12-point curve), IC50 values are determined using a nonlinear regression model available in GraphPad Prism 5. Promega ADP-Glo Max assay kit (Cat. No. V7002) can be utilized to determine IC50 values for α, β, δ and γ isoforms of human Class I PI3 kinases (Millipore). Samples of kinase (20 nM α or δ, 40 nM β or γ isoform) are incubated with compound for 15 minutes at room temperature in reaction buffer (15 mM HEPES pH 7.4, 20 mM NaCl, 1 mM EGTA, 0.02% Tween 20, 10 mM MgCl2, 0.2 mg/mL bovine-γ-globulins) followed by addition of ATP/diC8-PtdInsP mixture to give final concentrations of 3 mM ATP and 500 uM diC8-PtdInsP. Reactions are incubated at room temperature for 2 hours followed by addition of 25 uL of stop solution. After a 40-minute incubation at room temperature, 50 uL of Promega detection mix is added followed by incubation for 1 hour at room temperature. Plates are then read on Envision plate reader in luminescence mode. Data are converted to % inhibition using the following equation below: [formula] where S is the sample luminescence, Pos is a positive control without added PI3K, Neg is the negative control without added compound. Data are then plotted as % inhibition vs compound concentration. Data fit to 4 parameter logistic equation to determine IC50 values: [formula]

PI3K β, sequence (P42338 whole entry, looked up, the tested form may be a part, canonical isoform): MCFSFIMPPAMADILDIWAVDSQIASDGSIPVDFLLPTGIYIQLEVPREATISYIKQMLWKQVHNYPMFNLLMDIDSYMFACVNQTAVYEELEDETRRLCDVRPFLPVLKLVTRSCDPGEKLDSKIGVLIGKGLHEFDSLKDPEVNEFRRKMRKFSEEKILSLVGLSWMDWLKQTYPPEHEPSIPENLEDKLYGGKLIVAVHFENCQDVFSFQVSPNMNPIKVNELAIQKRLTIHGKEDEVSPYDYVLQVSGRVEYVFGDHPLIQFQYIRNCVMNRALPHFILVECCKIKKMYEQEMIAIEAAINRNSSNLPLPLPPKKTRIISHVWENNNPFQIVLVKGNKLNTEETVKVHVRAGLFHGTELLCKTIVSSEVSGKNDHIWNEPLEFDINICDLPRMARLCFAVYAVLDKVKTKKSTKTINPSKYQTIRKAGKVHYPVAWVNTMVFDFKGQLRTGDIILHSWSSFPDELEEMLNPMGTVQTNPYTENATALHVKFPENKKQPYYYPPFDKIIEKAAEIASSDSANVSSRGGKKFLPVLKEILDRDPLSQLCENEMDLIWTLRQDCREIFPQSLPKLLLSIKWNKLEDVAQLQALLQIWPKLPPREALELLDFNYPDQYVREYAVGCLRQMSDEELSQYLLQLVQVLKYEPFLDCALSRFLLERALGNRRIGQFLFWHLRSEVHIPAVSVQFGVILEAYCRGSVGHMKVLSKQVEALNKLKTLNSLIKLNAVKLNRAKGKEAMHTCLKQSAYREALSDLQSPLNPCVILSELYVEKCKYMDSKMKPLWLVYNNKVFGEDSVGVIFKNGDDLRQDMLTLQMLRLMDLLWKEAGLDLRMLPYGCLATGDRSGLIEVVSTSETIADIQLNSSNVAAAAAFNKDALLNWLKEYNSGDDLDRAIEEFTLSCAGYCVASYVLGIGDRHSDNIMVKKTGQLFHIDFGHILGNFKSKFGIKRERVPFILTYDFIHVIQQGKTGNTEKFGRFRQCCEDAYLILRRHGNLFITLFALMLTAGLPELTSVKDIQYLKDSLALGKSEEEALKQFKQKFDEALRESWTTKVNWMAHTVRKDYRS
p110 δ, sequence (O00329 whole entry): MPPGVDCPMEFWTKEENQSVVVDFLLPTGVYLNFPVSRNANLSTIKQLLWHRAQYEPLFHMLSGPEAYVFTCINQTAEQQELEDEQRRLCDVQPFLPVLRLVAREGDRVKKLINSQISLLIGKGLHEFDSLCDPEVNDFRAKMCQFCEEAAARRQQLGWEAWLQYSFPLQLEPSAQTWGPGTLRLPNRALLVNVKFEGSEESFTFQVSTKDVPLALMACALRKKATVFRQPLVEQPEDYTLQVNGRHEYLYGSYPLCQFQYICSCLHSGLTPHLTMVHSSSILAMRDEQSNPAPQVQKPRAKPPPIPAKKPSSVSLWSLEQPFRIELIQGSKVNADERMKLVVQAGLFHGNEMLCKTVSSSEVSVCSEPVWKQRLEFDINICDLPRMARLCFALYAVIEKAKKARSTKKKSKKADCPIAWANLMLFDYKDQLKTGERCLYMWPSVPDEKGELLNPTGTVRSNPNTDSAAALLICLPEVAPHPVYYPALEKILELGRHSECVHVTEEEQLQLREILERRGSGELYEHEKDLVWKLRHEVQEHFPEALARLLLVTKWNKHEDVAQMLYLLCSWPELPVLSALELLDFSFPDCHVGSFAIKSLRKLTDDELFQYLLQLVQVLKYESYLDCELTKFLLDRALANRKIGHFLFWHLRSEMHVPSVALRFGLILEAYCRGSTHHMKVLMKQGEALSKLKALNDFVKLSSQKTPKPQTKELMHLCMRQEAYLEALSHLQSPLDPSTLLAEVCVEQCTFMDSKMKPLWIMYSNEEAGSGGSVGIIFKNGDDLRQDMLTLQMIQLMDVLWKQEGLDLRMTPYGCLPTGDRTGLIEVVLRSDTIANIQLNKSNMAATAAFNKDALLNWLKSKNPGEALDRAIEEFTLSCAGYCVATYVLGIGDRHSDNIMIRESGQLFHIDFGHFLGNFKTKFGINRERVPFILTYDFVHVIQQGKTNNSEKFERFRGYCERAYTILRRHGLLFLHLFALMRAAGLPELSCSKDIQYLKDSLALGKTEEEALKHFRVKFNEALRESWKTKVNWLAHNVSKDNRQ
p110 δ, sequence (P27986 whole entry partner): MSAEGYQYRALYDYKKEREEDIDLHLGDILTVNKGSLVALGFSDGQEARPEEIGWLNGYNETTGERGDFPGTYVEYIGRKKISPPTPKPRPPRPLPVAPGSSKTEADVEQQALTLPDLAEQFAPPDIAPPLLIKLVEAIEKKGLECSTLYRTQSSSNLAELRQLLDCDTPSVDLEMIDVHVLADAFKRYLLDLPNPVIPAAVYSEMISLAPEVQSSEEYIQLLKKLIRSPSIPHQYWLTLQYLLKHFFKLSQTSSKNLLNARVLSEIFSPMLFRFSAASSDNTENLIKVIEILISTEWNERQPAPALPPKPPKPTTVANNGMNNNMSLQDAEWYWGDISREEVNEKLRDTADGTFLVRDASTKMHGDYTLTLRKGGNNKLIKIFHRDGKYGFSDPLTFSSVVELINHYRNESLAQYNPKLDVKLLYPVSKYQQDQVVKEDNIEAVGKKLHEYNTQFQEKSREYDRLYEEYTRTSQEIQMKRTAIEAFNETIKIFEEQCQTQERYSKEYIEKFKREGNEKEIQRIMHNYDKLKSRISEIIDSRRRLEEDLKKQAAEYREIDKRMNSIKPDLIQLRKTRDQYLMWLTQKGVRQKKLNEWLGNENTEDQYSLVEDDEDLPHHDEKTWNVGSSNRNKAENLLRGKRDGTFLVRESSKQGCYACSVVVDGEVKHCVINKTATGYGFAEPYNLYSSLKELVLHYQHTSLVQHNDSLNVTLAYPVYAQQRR
PI3K δ, sequence (O00329 whole entry, canonical isoform): as the sequence (O00329 whole entry) above
PI3K δ, sequence (P27986 whole entry partner, canonical isoform): as the sequence (P27986 whole entry partner) above
p110 γ, sequence (Q9JHG7 whole entry, the tested form may be a part): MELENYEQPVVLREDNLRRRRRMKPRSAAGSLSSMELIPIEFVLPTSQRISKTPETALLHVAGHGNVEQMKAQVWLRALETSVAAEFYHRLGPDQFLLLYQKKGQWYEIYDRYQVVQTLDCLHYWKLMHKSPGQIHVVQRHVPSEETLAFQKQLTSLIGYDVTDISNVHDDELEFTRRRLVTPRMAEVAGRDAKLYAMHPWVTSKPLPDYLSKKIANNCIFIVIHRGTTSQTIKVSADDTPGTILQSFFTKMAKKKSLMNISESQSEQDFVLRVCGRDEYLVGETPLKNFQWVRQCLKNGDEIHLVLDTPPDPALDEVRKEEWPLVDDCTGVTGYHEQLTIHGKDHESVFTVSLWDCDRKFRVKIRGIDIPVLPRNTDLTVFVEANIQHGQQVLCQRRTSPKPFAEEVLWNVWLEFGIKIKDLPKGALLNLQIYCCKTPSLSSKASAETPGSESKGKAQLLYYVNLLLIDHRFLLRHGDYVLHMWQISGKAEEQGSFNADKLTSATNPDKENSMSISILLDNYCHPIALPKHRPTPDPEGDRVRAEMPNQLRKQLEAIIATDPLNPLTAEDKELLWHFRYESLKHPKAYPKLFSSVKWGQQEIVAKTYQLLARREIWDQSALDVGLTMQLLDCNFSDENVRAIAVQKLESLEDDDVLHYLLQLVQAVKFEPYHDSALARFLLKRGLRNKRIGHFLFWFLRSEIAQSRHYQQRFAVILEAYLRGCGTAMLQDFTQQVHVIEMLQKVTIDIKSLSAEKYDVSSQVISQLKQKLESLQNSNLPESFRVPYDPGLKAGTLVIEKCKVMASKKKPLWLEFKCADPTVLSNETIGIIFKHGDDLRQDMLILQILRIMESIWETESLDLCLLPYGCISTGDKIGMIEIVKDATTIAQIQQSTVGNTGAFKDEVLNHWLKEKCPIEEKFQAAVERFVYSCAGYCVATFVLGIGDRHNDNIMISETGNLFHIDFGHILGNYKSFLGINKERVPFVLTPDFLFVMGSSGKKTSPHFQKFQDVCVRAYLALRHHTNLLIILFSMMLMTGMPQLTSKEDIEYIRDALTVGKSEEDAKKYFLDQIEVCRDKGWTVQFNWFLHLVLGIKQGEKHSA

| SMILES | IC50 (p110 δ) [µM] | IC50 (PI3K α) [µM] | IC50 (p110 γ) [µM] | RAJI δ/Raw264.7 γ IC50 (selectivity) (p110 γ) | IC50 (PI3K γ) [µM] | PI3K δ/PI3K γ IC50 (selectivity) (PI3K γ) | IC50 (PI3K δ) [µM] | IC50 (PI3K β) [µM] |
| --- | --- | --- | --- | --- | --- | --- | --- | --- |
| C[C@H](NC(=O)c1c(N)nn2cccnc12)c1oc2cccc(C#Cc3cnn(C)c3)c2c(=O)c1-c1ccccc1 [Compound 103S] | 1 to 10 | 5 to 10 | 0.001 to 0.05 | Y (Y = 50 to <850) | 0.1 to 0.5 | X (X = 10 to <50) | 5 to 10 | 5 to 10 |
| CC(NC(=O)c1c(N)nn2cccnc12)c1oc2cccc(C#Cc3cnn(C)c3)c2c(=O)c1-c1ccccc1 (centres unmarked) [Compound 103] | 1 to 10 | 5 to 10 | 0.05 to 0.1 | X (X = 10 to <50) | 1 to 5 | W (W = >1 to <10) | 5 to 10 | 5 to 10 |
| C[C@H](NC(=O)c1c(N)nn2cccnc12)c1cc2cccc(C#Cc3cnn(C)c3)c2nc1-c1ccccc1 [Compound 175S] | 0.1 to 0.5 | 5 to 10 | 0.001 to 0.05 | W (W = >1 to <10) | 0.1 to 0.5 | X (X = 10 to <50) | 5 to 10 | 5 to 10 |

More lines, now with the values ahead:

| IC50 (p110 δ) [µM] | IC50 (PI3K α) [µM] | IC50 (p110 γ) [µM] | RAJI δ/Raw264.7 γ IC50 (selectivity) (p110 γ) | IC50 (PI3K γ) [µM] | PI3K δ/PI3K γ IC50 (selectivity) (PI3K γ) | IC50 (PI3K δ) [µM] | IC50 (PI3K β) [µM] | SMILES |
| --- | --- | --- | --- | --- | --- | --- | --- | --- |
| 1 to 10 | 5 to 10 | 0.1 to 10 | X (X = 10 to <50) | > 5 | V (V = 0.1 to 1) | 5 to 10 | 5 to 10 | C[C@@H](NC(=O)c1c(N)nn2cccnc12)c1oc2cccc(C#Cc3cnn(C)c3)c2c(=O)c1-c1ccccc1 [Compound 103R] |
| – | 5 to 10 | – | – | > 5 | V (V = 0.1 to 1) | 5 to 10 | 5 to 10 | C[C@@H](NC(=O)c1c(N)nn2cccnc12)c1cc2cccc(C#Cc3cnn(C)c3)c2nc1-c1ccccc1 [Compound 175R] |
| 1 to 10 | 5 to 10 | 0.1 to 10 | V (V = 0.1 to 1) | > 5 | V (V = 0.1 to 1) | 5 to 10 | 5 to 10 | C[C@@H](NC(=O)c1c(N)nn2cccnc12)c1nc2cccc(C#Cc3cnn(C)c3)c2cc1-c1ccccc1 [Compound 181R] |
| 1 to 10 | 5 to 10 | 0.1 to 10 | Y (Y = 50 to <850) | > 5 | V (V = 0.1 to 1) | 5 to 10 | 5 to 10 | C[C@H](NC(=O)c1c(N)nn2cccnc12)c1nc2cccc(C#Cc3cnn(C)c3)c2cc1-c1ccccc1 [Compound 181S] |
